Experimental data reported in ChEMBL document CHEMBL4831557, “Parthenolide Derivatives as PKM2 Activators Showing Potential in Colorectal Cancer” (J Med Chem, 2021).
Activity calls are given as the source filed them. The calls are words filed in the database; no cut-off is given here.

Legend:
U2OS = test: Cytotoxicity against human U2OS cells assessed as reduction in cell viability incubated for 48 hrs by MTT assay; assay type: functional, cell-based
HT-29 [1] = test: Induction of apoptosis in human HT-29 cells assessed as decrease in caspase-3 expression at 0.45 to 1.8 uM after 48 hrs by Western blotting analysis; assay type: functional, cell-based; conditions: dose 0.45-1.8 µM
HT-29 [2] = test: Antiproliferative activity against human HT-29 cells at 0.25 to 1 uM measured after 48 hrs by EdU staining based confocal microscopic analysis; assay type: functional, cell-based; conditions: dose 0.25-1 µM
HT-29 [3] = test: Induction of apoptosis in human HT-29 cells assessed as decrease in PARP expression at 0.45 to 1.8 uM after 48 hrs by Western blotting analysis; assay type: functional, cell-based; conditions: dose 0.45-1.8 µM
Pyruvate kinase PKM [4] = molecular target: T1, Pyruvate kinase PKM (Homo sapiens, UniProt P14618); test: Activation of PKM2 in human HT-29 cells assessed as decrease in lactic acid production; assay type: cell-based; conditions: filed as activator
Target sequence in this assay (P14618 2-531 limits assumed): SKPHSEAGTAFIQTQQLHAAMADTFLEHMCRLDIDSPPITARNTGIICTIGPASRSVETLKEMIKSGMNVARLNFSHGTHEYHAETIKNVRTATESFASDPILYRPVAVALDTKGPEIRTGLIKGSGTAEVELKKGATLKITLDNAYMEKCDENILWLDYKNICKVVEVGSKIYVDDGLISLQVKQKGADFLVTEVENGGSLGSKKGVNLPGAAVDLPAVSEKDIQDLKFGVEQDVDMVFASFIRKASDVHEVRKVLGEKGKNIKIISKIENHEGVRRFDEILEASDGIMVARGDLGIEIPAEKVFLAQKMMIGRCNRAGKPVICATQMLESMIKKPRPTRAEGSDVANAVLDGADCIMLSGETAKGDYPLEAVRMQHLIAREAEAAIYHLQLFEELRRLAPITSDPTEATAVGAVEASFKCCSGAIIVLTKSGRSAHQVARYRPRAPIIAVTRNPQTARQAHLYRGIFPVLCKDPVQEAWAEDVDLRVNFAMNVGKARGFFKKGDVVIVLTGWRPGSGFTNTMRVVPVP

SW480 [5] = test: Cytotoxicity against human SW480 cells assessed as reduction in cell viability incubated for 48 hrs by MTT assay; assay type: functional, cell-based; conditions: SW480, 48 h
Pyruvate kinase PKM [6] = molecular target: T1, Pyruvate kinase PKM; test: Inhibition of PKM2/STAT3 in human HT-29 cells assessed as increase in bax protein expression at 0.45 to 1.8 uM incubated for 48 hrs by Western blot analysis; assay type: cell-based; conditions: dose 0.45-1.8 µM
Target sequence in this assay (P14618 2-531 limits assumed): as above

Pyruvate kinase PKM [7] = molecular target: T1, Pyruvate kinase PKM; test: Activation of PKM2 in human HT-29 cells assessed as increase in PKM2 tetramer formation by dynamic laser light scattering analysis; assay type: cell-based; conditions: filed as activator
Target sequence in this assay (P14618 2-531 limits assumed): as above

HT-29 [8] = test: Induction of apoptosis in PKM2 knock down human HT-29 cells at 0.45 to 1.8 uM; assay type: functional, cell-based; conditions: dose 0.45-1.8 µM
Pyruvate kinase PKM [9] = molecular target: T1, Pyruvate kinase PKM; test: Inhibition of PKM2/STAT3 in human HT-29 cells assessed as decrease in phosphorylated STAT3 level at 0.45 to 1.8 uM after 48 hrs by Western blot analysis; assay type: cell-based; conditions: dose 0.45-1.8 µM
Target sequence in this assay (P14618 2-531 limits assumed): as above

HCT-116 = test: Cytotoxicity against human HCT-116 cells assessed as reduction in cell viability incubated for 48 hrs by MTT assay; assay type: functional, cell-based; conditions: HCT-116, 48 h
Pyruvate kinase PKM [10] = molecular target: T1, Pyruvate kinase PKM; test: Inhibition of PKM2/STAT3 in human HT-29 cells assessed as reduction in cyclin-D1 protein expression at 0.45 to 1.8 uM incubated for 48 hrs by Western blot analysis; assay type: cell-based; conditions: dose 0.45-1.8 µM
Target sequence in this assay (P14618 2-531 limits assumed): as above

SW480 [11] = test: Antimigratory activity against human SW480 cells; assay type: functional, cell-based
Pyruvate kinase PKM [12] = molecular target: Pyruvate kinase PKM (Homo sapiens, UniProt P14618, C424A); test: Activation of human PKM2-C424A expressed in Escherichia coli BL21 (DE3)
Sequence of Pyruvate kinase PKM (Homo sapiens, UniProt P14618, C424A) (P14618 2-531 C424A limits assumed): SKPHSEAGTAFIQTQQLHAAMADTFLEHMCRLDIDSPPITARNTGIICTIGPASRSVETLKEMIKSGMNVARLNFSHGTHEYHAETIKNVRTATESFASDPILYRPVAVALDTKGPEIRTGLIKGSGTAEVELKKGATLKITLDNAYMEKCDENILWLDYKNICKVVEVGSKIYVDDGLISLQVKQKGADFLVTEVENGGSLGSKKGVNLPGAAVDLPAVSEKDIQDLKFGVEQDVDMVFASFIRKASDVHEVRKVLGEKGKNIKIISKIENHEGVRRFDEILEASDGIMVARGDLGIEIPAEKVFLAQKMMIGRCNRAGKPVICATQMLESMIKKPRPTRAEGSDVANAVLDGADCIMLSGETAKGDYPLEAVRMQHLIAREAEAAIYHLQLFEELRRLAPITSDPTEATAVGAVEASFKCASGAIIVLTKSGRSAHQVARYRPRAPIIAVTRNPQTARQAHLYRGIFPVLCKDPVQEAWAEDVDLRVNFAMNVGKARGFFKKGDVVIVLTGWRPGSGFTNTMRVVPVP

[13] = Toxicity in BALB/c mouse xenografted with human HT-29 cells assessed as decrease in body weight at 30 mg/kg, ip administered once every 2 days for 2 weeks and monitered every 2 days; assay type: organism-based; conditions: in vivo, 336 h
Pyruvate kinase PKM [14] = molecular target: T1, Pyruvate kinase PKM; test: Inhibition of PKM2/STAT3 in human HT-29 cells assessed as reduction in bcl-xl protein expression at 0.45 to 1.8 uM incubated for 48 hrs by Western blot analysis; assay type: cell-based; conditions: dose 0.45-1.8 µM
Target sequence in this assay (P14618 2-531 limits assumed): as the sequence (P14618 2-531 limits assumed) above

HT-29 [15] = test: Induction of apoptosis in human HT-29 cells assessed as increase in cleaved caspase-3 expression at 0.45 to 1.8 uM after 48 hrs by Western blotting analysis; assay type: functional, cell-based; conditions: dose 0.45-1.8 µM
HT-29 [16] = test: Inhibition of colony formation in human HT-29 cells incubated for 14 days by crystal violet staining based analysis; assay type: functional, cell-based; conditions: dose 0.15-0.3 µM, time 14.0 day
Pyruvate kinase PKM [17] = molecular target: T1, Pyruvate kinase PKM; test: Activation of recombinant human PKM2 incubated 30 mins by fluorescence microplate reader analysis
Target sequence in this assay (P14618 whole entry): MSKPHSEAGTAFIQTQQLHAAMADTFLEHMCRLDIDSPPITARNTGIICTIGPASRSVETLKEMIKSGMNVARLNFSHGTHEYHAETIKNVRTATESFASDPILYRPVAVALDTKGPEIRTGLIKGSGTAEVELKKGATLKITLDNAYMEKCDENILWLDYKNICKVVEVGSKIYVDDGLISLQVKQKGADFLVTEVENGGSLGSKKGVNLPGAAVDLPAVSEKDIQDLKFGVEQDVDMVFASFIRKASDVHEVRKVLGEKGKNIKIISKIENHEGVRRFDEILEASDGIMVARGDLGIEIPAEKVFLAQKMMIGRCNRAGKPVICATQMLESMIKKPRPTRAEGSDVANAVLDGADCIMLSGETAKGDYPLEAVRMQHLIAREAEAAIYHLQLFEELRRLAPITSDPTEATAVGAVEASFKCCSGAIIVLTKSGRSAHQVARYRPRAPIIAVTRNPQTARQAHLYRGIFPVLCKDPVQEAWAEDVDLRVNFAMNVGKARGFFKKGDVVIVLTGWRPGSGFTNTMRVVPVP

Pyruvate kinase PKM [18] = molecular target: T1, Pyruvate kinase PKM; test: Activation of recombinant human PKM2 at 10 uM incubated 30 mins by fluorescence microplate reader analysis; conditions: filed as activator
HT-29 [19] = test: Antitumor activity against human HT-29 cells xenografted in BALB/c mouse assessed as reduction in tumor growth at 15 to 30 mg/kg, ip administered once every 2 days for 2 weeks by vernier caliper method; assay type: functional, organism-based; conditions: dose 15-30 mg/kg
Pyruvate kinase PKM [20] = molecular target: T1, Pyruvate kinase PKM; test: Inhibition of PKM2/STAT3 in human HT-29 cells assessed as decrease in total STAT3 level at 0.45 to 1.8 uM after 48 hrs by Western blot analysis; assay type: cell-based; conditions: dose 0.45-1.8 µM
HT-29 [21] = test: Inhibition of epithelial-mesenchymal transition in human HT-29 cells assessed as change in E-cadherin expression; assay type: functional, cell-based
HT-29 [22] = test: Effect on total PKM2 protein expression in nucleus of human HT-29 cells at 0.45 to 1.8 uM after 48 hrs by Western blot analysis; assay type: functional, cell-based; conditions: dose 0.45-1.8 µM
Pyruvate kinase PKM [23] = molecular target: T1, Pyruvate kinase PKM; test: Activation of PKM2 in human HT-29 cells assessed as increase in PKM2 tetramer formation at 0.6 to 1.2 uM after 48 hrs by Western blot analysis; assay type: cell-based; conditions: filed as activator, dose 0.6-1.2 µM
HT-29 [24] = test: Induction of cell cycle arrest in human HT-29 cells assessed as accumulation of cells at G2/M phase after 48 hrs by PI staining based flow cytometric analysis; assay type: functional; conditions: dose 0.45-1.8 µM
HT-29 [25] = test: Induction of apoptosis in human HT-29 cells after 48 hrs by Annexin V-PE and 7-AAD staining based flow cytometric analysis; assay type: functional, cell-based; conditions: dose 0.45-1.8 µM
Pyruvate kinase PKM [26] = molecular target: T1, Pyruvate kinase PKM; test: Activation of human PKM2-C424A expressed in Escherichia coli BL21 (DE3) assessed as increase in PKM2-C424A tetramer formation by chemical cross-linking assay
Pyruvate kinase PKM [27] = molecular target: T1, Pyruvate kinase PKM; test: Activation of PKM2 in human HT-29 cells assessed as decrease in extracellular acidification rate; assay type: cell-based; conditions: filed as activator
Pyruvate kinase PKM [28] = molecular target: T1, Pyruvate kinase PKM; test: Inhibition of PKM2/STAT3 in human HT-29 cells assessed as reduction in bcl2 protein expression at 0.45 to 1.8 uM incubated for 48 hrs by Western blot analysis; assay type: cell-based; conditions: dose 0.45-1.8 µM
Pyruvate kinase PKM [29] = molecular target: T1, Pyruvate kinase PKM; test: Activation of PKM2 in human HT-29 cells assessed as increase in cell basal respiration; assay type: cell-based; conditions: filed as activator
[30] = Selectivity index, ratio of IC50 for human NCM460 cells to IC50 for human SW480 cells
MDA-MB-231 = test: Cytotoxicity against human MDA-MB-231 cells assessed as reduction in cell viability incubated for 48 hrs by MTT assay; assay type: functional, cell-based; conditions: MDA-MB-231, 48 h
HT-29 [31] = test: Inhibition of epithelial-mesenchymal transition in human HT-29 cells assessed as change in Snail-2 expression; assay type: functional, cell-based
Pyruvate kinase PKM [32] = molecular target: T1, Pyruvate kinase PKM; test: Inhibition of PKM2 dimer nuclear translocation in human HT-29 cells by immunostaining based analysis; assay type: cell-based
SW480 [33] = test: Effect on mitochondrial membrane potential in human SW480 cells at 0.2 to 0.6 uM measured after 48 hrs by JC-1 staining based assay; assay type: functional, cell-based; conditions: dose 0.2-0.6 µM
HT-29 [34] = test: Antitumor activity against human HT-29 cells xenografted in BALB/c mouse assessed as reduction in tumor weight at 15 to 30 mg/kg, ip administered once every two days for 2 weeks by vernier caliper method; assay type: functional, organism-based; conditions: dose 15-30 mg/kg
HT-29 [35] = test: Effect on total PKM2 protein expression in cytoplasm of human HT-29 cells at 0.45 to 1.8 uM after 48 hrs by Western blot analysis; assay type: functional, cell-based; conditions: dose 0.45-1.8 µM
HepG2 = test: Cytotoxicity against human HepG2 cells assessed as reduction in cell viability incubated for 48 hrs by MTT assay; assay type: functional, cell-based; conditions: HepG2, 48 h
[36] = Selectivity index, ratio of IC50 for human NCM460 cells to IC50 for human HT-29 cells; assay type: toxicity; conditions: NCM460 cells versus HT-29 cells, read-out: Ratio IC50

For C=C1C(=O)O[C@H]2[C@H]1CC/C(COC(=O)c1ccc3nccc(Br)c3c1)=C/CC[C@@]1(C)O[C@@H]21, the IC50 (U2OS) was 1.79 µM, the Activity (HT-29 [1]) was “Active” and the Activity (HT-29 [2]) was “Active”. The Activity (HT-29 [3]) was “Active”, the Activity (Pyruvate kinase PKM [4]) was “Active” and the IC50 (SW480 [5]) was 0.22 µM. For the same compound, the inhibition (Pyruvate kinase PKM [6]) was “Active”, the Activity (Pyruvate kinase PKM [7]) was “Active” and the Activity (HT-29 [8]) was “inactive”. The inhibition (Pyruvate kinase PKM [9]) was “Active”, the IC50 (HCT-116) was 1 µM and the inhibition (Pyruvate kinase PKM [10]) was “Active”. For the same compound, the Activity (SW480 [11]) was “Active”, the AC50 (Pyruvate kinase PKM [12]) was 0.1 µM and the Activity [13] was “Non-Toxic”. For the same compound, the inhibition (Pyruvate kinase PKM [14]) was “Active”, the Activity (HT-29 [15]) was “Active” and the inhibition (HT-29 [16]) was “Dose-Dependent Effect”. The AC50 (Pyruvate kinase PKM [17]) was 0.0863 µM, the Activity (Pyruvate kinase PKM [18]) was “Active” and the Activity (HT-29 [19]) was “Active”. The inhibition (Pyruvate kinase PKM [20]) was “Active”, the inhibition (HT-29 [21]) was “inactive” and the Activity (HT-29 [22]) was “Active”. For the same compound, the Activity (Pyruvate kinase PKM [23]) was “Active”, the Activity (HT-29 [24]) was “Dose-Dependent Effect” and the Activity (HT-29 [25]) was “Dose-Dependent Effect”. For the same compound, the Activity (Pyruvate kinase PKM [26]) was “inactive”, the Activity (Pyruvate kinase PKM [27]) was “Active” and the inhibition (Pyruvate kinase PKM [28]) was “Active”. For the same compound, the Activity (Pyruvate kinase PKM [29]) was “Active”, the “Ratio IC50” value [30] was 9.18 and the IC50 (MDA-MB-231) was 1.03 µM. The inhibition (HT-29 [31]) was “inactive”, the inhibition (Pyruvate kinase PKM [32]) was “Active” and the Activity (SW480 [33]) was “Active”. The Activity (HT-29 [34]) was “Active”, the Activity (HT-29 [35]) was “inactive” and the IC50 (HepG2) was 3.9 µM. It also gave a selectivity ratio [36] of 3.06.
